Activity calls are given as the source filed them.
Key:
[1] = molecular target: G-protein coupled receptor 55 (Homo sapiens, UniProt Q9Y2T6); assay: selective activators of receptor GPR55 – imaging, U2OS cells, beta-arrestin-GFP redistribution, primary screen (AID 1961); format: functional
[2] = molecular target: T1, Dual specificity protein phosphatase 3 (Homo sapiens, UniProt P51452); assay: VHR1 phosphatase inhibitors, primary screen, biochemical, absorbance, uHTS (AID 1654)
[3] = molecular target: T1, Dual specificity protein phosphatase 3; assay: VHR1 phosphatase inhibitors, biochemical (AID 1878)
[4] = molecular target: T2, Dual specificity protein phosphatase 6 (Rattus norvegicus, UniProt Q64346); assay: inhibition of rat DUSP6 enzyme activity – biochemical, in vitro, primary screen (AID 425)
T2 sequence (Q64346 whole entry): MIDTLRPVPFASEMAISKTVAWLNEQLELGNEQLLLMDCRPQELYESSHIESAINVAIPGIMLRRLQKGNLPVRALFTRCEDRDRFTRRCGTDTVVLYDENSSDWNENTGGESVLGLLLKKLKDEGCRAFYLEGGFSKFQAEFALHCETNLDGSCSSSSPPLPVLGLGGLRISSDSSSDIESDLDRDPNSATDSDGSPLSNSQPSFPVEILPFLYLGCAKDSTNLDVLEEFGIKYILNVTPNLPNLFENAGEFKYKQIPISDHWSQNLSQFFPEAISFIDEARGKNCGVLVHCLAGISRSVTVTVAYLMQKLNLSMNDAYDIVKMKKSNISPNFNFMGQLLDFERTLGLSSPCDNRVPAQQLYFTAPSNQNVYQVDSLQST

[5] = molecular target: DNA dC->dU-editing enzyme APOBEC-3A (Homo sapiens, UniProt P31941); assay: A3A deaminase inhibition for selectivity – biochemical, dose response (AID 504722); format: functional
Chain of DNA dC->dU-editing enzyme APOBEC-3A (P31941 whole entry): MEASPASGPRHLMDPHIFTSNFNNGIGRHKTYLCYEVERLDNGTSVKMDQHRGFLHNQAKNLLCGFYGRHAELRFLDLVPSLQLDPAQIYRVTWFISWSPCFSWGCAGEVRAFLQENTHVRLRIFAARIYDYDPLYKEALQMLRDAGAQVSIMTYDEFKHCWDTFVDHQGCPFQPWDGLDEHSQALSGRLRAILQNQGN

[6] = molecular target: Glucose-6-phosphate 1-dehydrogenase (Homo sapiens, UniProt P11413); assay: inhibition of Homo sapiens G6PD, dose series – biochemical, fluorescence, selectivity assay for P. falciparum G6PD inhibitor project, dose response (AID 504792); format: functional
Chain of Glucose-6-phosphate 1-dehydrogenase (P11413 whole entry): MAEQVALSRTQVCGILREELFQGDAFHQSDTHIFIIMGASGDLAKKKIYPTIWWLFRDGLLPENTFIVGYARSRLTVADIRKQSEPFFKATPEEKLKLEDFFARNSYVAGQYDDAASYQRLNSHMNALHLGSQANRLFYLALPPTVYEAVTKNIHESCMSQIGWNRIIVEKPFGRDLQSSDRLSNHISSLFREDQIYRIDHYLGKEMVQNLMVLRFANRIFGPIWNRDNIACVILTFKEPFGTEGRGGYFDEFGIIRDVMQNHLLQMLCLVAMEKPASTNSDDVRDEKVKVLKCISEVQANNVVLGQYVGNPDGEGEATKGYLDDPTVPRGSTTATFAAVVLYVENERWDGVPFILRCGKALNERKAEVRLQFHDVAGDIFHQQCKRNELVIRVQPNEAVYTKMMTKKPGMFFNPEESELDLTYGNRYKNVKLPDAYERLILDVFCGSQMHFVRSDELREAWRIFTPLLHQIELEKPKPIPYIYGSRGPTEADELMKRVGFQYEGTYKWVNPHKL

[7] = molecular target: DNA dC->dU-editing enzyme APOBEC-3G (Homo sapiens, UniProt Q9HC16); assay: Dose Response confirmation of small molecule APOBEC3G DNA Deaminase Inhibitors via a fluorescence-based single-stranded DNA deaminase assay. [Related pubchem assays (depositor defined):AID493012, AID493028]; format: functional
Chain of DNA dC->dU-editing enzyme APOBEC-3G (Q9HC16 whole entry): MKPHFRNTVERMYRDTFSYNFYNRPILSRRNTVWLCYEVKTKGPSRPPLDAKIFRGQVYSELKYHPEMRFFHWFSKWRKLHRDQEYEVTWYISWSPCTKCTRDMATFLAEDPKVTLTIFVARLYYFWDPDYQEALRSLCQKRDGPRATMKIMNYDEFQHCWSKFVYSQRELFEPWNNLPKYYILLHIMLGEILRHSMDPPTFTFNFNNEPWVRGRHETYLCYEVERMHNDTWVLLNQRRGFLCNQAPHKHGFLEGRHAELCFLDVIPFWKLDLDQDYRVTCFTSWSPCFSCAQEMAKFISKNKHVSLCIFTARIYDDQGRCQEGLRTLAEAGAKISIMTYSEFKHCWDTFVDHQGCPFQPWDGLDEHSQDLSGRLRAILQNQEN

[8] = molecular target: T3, Tyrosine-protein phosphatase non-receptor type 11 (Homo sapiens, UniProt Q06124); assay: PTPN11 enzyme inhibitors – biochemical, selectivity assay for STEP inhibitor project, dose response (AID 602367); format: functional; conditions: read-out: IC50_Mean
T3 sequence (Q06124 whole entry): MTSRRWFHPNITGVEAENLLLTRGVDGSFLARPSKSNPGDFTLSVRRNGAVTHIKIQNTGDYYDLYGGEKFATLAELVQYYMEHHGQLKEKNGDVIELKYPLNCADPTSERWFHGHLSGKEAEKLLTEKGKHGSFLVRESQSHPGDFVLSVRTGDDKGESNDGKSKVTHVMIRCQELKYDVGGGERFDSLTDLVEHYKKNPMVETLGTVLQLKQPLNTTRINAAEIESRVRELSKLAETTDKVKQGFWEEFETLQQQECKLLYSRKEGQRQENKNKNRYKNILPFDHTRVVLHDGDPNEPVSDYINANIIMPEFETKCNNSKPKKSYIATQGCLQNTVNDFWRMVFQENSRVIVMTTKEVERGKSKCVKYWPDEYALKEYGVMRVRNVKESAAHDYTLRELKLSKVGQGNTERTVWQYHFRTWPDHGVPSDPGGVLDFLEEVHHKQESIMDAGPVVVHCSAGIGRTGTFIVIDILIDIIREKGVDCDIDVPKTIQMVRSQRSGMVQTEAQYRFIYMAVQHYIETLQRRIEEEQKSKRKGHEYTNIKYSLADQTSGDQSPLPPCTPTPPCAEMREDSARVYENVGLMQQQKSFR

[9] = molecular target: T4, Tyrosine-protein phosphatase non-receptor type 5 (Homo sapiens, UniProt P54829); assay: PTPN5 enzyme inhibition – biochemical, fluorescence intensity, uHTS hits, confirmation (AID 602372); format: functional; conditions: read-out: IC50_Mean
T4 sequence (P54829 whole entry): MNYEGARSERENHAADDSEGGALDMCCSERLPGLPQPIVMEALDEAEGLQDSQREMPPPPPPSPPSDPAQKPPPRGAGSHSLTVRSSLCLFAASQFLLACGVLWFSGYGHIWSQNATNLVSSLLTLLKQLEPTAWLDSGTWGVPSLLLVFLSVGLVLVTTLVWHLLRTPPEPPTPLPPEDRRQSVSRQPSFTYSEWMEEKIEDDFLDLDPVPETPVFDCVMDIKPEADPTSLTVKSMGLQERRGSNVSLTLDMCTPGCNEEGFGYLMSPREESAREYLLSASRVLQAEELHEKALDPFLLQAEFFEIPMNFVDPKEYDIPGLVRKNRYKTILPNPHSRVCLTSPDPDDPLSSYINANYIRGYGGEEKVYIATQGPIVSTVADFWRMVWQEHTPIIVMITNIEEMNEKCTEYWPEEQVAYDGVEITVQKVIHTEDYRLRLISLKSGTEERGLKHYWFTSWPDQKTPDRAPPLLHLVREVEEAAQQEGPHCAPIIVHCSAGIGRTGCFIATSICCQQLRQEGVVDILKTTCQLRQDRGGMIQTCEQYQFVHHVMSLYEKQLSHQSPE

[10] = molecular target: T1, Dual specificity protein phosphatase 3; assay: VHR phosphatase inhibition, dose response, selectivity assay for STEP inhibitor project, biochemical (AID 602374); format: functional; conditions: read-out: IC50_Mean
[11] = molecular target: T5, Tyrosine-protein phosphatase non-receptor type 22 (Homo sapiens, UniProt Q9Y2R2); assay: lymphoid phosphatase LYP inhibitors – biochemical, selectivity assay for STEP inhibitor project, dose response (AID 624241); format: functional
T5 sequence (Q9Y2R2 whole entry): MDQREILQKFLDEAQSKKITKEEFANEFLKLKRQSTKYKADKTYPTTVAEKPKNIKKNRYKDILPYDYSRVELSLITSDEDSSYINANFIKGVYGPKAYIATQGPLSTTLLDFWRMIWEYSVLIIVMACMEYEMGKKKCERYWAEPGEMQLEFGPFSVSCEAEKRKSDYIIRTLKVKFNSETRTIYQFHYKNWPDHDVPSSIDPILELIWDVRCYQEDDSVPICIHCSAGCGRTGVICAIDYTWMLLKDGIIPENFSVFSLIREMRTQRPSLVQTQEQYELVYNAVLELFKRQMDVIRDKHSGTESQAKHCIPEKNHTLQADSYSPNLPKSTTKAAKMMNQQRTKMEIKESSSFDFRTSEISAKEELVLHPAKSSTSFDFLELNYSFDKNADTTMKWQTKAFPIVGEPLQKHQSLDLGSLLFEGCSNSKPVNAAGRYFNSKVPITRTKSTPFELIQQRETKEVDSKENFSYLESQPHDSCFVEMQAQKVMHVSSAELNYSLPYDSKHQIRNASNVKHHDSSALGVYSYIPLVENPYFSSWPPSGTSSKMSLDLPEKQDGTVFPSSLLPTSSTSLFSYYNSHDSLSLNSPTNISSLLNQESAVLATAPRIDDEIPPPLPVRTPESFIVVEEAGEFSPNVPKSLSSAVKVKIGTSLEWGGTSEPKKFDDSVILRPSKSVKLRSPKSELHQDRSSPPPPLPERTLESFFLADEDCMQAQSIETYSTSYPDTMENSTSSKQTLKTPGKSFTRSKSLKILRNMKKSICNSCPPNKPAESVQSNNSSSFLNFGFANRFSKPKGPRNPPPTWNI

[12] = NIH-3T3 fibroblast cytotoxicity, dose response, cytotoxicity control, cell-based, fluorescence, Alamar Blue, secondary assay (AID 2327); format: functional;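 note: NIH-3T3 mouse fibroblasts cultured with fluconazole at 8 µg/mL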
[13] = system: Streptococcus sp. 'group A'; assay: Streptococcus pyogenes SK(-)GAS viability under kanamycin – luminescence, BacTiterGlo, confirmation, counter-screen for streptokinase expression inhibitor project, dose response (AID 1900); format: functional, organism-based
cells [14] = format: functional, cell-based
Streptokinase A = molecular target: T6, Streptokinase A (Streptococcus pyogenes serotype M1, UniProt P10520); assay: viability-normalized secreted streptokinase activity reduction – plasminogen activation absorbance, OD405, dose response (AID 1914); format: functional, Streptococcus pyogenes M1 GAS;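 note: secreted streptokinase activity via plasminogen activation per viability signal from cell pellet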
T6 sequence (P10520 whole entry): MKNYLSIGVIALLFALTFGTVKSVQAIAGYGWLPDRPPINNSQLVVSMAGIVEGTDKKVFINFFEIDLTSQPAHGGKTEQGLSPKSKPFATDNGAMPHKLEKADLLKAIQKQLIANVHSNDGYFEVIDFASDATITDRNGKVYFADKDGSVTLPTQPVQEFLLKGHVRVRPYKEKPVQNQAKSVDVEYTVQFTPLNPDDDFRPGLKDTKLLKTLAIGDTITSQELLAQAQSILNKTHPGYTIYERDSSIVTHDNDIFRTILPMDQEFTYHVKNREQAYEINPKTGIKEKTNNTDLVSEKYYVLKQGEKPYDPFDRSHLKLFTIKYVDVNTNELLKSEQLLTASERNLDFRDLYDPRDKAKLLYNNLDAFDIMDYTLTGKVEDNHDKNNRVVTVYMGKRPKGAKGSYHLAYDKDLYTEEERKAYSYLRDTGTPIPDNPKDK

[15] = fluconazole-exposed Candida albicans growth modulators – fluorescence, retest, confirmation (AID 2467); format: functional, cell-based
[16] = Trypanosoma cruzi growth suppression in host cells – NIH3T3 host cells, beta-gal luminescence, confirmation (AID 2044); format: functional, cell-based;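 note: intracellular parasites grown in NIH/3T3 mouse fibroblasts as host cells; luminescent beta-galactosidase reporter signal from transgenic T. cruzi replicating inside host cells; inhibitors lower the luminescence signal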
cells [17] = format: functional, cell-based; remark: listed apart in the source
[18] = molecular target: T7, Serine/threonine-protein phosphatase (Candida dubliniensis (strain CD36 / CBS 7987 / NCPF 3949 / NRRLY-17841) (Yeast), UniProt B9W6M3); assay: blockers of CaCl2-induced CDRE-lacZ signaling – S. cerevisiae, luminescence, secondary, dose response (AID 2388); format: functional, cell-based;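 note: yeast reporter cells carrying a calcineurin-responsive lacZ construct stimulated with calcium chloride; luminescent beta-galactosidase reporter signal in whole cells rather than isolated phosphatase activity; potency for inhibition where a drop in reporter signal means calcineurin blockade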
T7 sequence (B9W6M3 whole entry): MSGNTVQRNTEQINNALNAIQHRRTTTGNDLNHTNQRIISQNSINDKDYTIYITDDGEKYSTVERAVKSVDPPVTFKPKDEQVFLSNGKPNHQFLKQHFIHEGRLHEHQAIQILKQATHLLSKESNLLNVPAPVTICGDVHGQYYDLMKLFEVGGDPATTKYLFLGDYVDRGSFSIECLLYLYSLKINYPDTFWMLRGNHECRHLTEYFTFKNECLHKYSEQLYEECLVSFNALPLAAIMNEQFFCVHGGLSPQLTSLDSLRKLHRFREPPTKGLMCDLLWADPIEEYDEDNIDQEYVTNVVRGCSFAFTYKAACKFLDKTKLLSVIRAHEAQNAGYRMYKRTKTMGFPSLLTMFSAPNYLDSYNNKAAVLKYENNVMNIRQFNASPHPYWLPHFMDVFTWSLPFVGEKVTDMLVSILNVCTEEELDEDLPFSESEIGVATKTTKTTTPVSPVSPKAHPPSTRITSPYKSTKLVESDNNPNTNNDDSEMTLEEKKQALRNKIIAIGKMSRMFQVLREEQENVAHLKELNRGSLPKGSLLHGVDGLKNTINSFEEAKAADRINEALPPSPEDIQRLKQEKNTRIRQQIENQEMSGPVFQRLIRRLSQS

[19] = NIH3T3 cell viability loss – ATP luminescence, mouse fibroblasts, counter-screen, dose response (AID 2010); format: functional, cell-based;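 note: cells exposed to compound for about 90 hours before reading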
Streptococcus = assay: GAS UMAA2166 growth inhibition – luminescence, BacTiterGlo, counter-screen for streptokinase expression inhibitor project, dose response (AID 1915); format: functional, organism-based;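 note: potency for reduction of bacterial viability or growth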
INS1 = assay: INS-1E survival protection against cytokine death – cell-based, luminescence, retest, dose response (AID 449756); format: functional; conditions: Rattus norvegicus;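 note: cell death triggered by IL-1 beta plus TNF-alpha plus IFN-gamma mixture; protective hits raise ATP signal compared with cytokine alone wells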
[20] = molecular target: ATP-dependent molecular chaperone HSP82 (Candida albicans (strain WO-1) (Yeast), UniProt C4YTQ8); assay: steroid-induced GRE reporter decrease in yeast – S. cerevisiae, luminescence, Hsp90 inhibitor project, dose response (AID 2400); format: functional, cell-based;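 note: beta-galactosidase luminescence from glucocorticoid response element reporter as proxy for Hsp90 function; inhibitor potency where signal loss means Hsp90 inhibition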
Chain of ATP-dependent molecular chaperone HSP82 (C4YTQ8 whole entry): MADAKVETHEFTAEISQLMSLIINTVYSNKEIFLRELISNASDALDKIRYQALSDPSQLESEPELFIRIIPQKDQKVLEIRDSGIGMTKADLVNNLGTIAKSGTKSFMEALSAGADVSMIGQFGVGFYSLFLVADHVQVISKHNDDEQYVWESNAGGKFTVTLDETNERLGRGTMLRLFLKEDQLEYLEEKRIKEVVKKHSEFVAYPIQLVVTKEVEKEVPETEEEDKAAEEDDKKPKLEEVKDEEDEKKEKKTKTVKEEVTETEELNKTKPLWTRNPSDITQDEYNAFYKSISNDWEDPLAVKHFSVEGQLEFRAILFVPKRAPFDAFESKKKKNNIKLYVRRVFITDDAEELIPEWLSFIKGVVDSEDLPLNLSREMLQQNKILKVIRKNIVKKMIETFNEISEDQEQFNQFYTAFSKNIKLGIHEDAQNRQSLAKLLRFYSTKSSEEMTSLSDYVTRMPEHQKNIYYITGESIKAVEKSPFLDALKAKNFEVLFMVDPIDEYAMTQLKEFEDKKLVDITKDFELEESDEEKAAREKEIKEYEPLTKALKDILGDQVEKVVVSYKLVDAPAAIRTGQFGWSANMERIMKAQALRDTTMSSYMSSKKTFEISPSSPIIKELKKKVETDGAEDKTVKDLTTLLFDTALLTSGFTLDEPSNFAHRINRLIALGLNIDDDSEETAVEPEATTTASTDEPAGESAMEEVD

Trypsin = Trypsin (Sus scrofa, UniProt P00761); assay: trypsin protease activity blockade – biochemical, quenched peptide fluorescence, cherry-pick, selectivity assay for Rce1 protease inhibitor project, dose response (AID 488789)
Chain of Trypsin (P00761 whole entry): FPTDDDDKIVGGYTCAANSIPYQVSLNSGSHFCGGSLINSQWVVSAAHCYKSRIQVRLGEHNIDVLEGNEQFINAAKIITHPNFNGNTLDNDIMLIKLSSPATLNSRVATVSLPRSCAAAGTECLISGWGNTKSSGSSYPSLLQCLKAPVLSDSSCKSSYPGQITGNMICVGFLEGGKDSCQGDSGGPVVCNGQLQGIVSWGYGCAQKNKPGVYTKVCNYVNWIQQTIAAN

CAAX prenyl protease 2 = CAAX prenyl protease 2 (Saccharomyces cerevisiae S288c, UniProt Q03530); format: biochemical
Chain of CAAX prenyl protease 2 (Q03530 whole entry): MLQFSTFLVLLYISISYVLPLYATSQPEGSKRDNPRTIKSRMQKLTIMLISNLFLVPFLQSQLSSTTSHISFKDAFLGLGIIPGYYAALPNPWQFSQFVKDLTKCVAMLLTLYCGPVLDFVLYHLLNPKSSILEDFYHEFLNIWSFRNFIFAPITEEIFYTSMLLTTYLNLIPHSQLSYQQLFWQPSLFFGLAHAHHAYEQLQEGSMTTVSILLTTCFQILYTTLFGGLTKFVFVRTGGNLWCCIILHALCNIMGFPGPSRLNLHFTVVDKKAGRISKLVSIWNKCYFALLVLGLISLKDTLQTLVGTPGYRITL

[21] = molecular target: T1, Dual specificity protein phosphatase 3; assay: SAR VHR1 Fluorescent Assay for In Vitro dose response studies. [Related pubchem assays (depositor defined):AID1654, AID1661, AID1878, AID1992, AID2004, AID2070, AID2085]; format: functional
[22] = molecular target: T8, Tyrosine-protein phosphatase non-receptor type 7 (Homo sapiens, UniProt P35236); assay: redox-active compounds inhibiting HePTP phosphatase – biochemical, fluorescence, mechanism study (AID 2068); format: functional
T8 sequence (P35236 whole entry): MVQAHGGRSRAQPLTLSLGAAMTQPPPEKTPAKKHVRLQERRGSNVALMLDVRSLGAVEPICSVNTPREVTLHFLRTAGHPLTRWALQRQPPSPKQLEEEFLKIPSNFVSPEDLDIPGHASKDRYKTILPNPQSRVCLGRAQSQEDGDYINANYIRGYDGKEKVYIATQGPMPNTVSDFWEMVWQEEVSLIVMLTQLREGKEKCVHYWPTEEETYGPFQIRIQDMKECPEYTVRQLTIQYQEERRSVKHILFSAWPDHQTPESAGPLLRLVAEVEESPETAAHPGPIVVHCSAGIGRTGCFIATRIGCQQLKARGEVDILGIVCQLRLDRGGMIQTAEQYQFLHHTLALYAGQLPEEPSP

T1 sequence (P51452 whole entry): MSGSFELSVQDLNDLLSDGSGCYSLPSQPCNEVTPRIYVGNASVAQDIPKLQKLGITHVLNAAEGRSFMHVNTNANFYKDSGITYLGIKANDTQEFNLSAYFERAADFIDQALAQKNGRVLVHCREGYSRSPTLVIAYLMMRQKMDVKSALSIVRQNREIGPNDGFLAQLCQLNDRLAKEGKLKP
Chain of G-protein coupled receptor 55 (Q9Y2T6 whole entry): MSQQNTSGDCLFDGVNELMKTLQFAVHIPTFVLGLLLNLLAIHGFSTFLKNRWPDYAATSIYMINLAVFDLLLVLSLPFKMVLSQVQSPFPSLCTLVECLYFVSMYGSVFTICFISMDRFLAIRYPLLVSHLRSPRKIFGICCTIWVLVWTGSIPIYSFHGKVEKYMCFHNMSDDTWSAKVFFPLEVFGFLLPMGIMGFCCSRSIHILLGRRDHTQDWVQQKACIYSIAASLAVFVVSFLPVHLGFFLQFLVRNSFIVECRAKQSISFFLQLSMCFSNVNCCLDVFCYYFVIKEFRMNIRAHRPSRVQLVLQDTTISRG

Cc1cc2ncn(-c3nnnn3-c3ccccc3)c2cc1C
EC50 [1]: 20 µM (inactive)

CN1CCN(C(=S)C(=O)Nc2ccc(Br)cc2)CC1
IC50 [2]: 4 µM (active)
IC50 [3]: 8.52 µM (active)
IC50 [4]: > 158 µM (not active)
IC50 [5]: > 100 µM (inactive)
IC50 [6]: > 80 µM (inactive)
IC50 [7]: 5.11 µM (active)
IC50 [8]: 0.431 µM (active)
IC50 [9]: 6.57 µM (active)
IC50 [10]: 0.386 µM (active)
IC50 [11]: 9.73 µM (active)

CC1CCN(Cc2c(C(=O)N/N=C/c3cc(Cl)ccc3O)nnn2-c2nonc2N)CC1
EC50 [12]: > 150 µM (inconclusive)
EC50 [13]: 27.3 µM (active)
EC50 (cells [14]): 10.7 µM (active)
EC50 (Streptokinase A): 31 µM (active)
EC50 [15]: 0.508 µM (active)
EC50 [16]: 0.541 µM (active)
EC50 (cells [17]): > 350 µM (not active)
EC50 [18]: > 180 µM (inactive)
EC50 [19]: 5.57 µM (active)
EC50 (Streptococcus): > 150 µM (not active)
EC50 [1]: 4.16 µM (active)
AC50 (INS1): 0.457 µM (active)
EC50 [20]: > 150 µM (inactive)

C=CCOc1ccc(-c2nnc(S)o2)cc1
AC50 (Trypsin): 3.91 µM (active)
AC50 (CAAX prenyl protease 2): 22.6 µM (active)

O=C(Nc1ccc2nc(-c3ccco3)c(-c3ccco3)nc2c1)N1CCC(c2ccccc2)C1 (stereo not drawn)
IC50 [21]: 14.7 µM (active)
IC50 [22]: 0.55 µM (active)

From ChEMBL document CHEMBL1201862, “PubChem BioAssay data set” (2004)
